In data set [1] the test system is P-glycoprotein (human MDR1). Put plainly: in vitro. The conditions noted are these: dog.
Procedure: Permeability of compounds was assessed using canine MDR1 knockout and human MDR1 knockin MDCKII cells (MDR1-MDCKII) (Sigma-Aldrich, MTOX1303) in confluent monolayers expressing P-glycoprotein (P-gp) at Enamine biological services Bienta LTD (Kyiv, Ukraine).
Canine MDR1 knockout, human MDR1 knockin MDCKII cell (MDR1-MDCKII) (Sigma-Aldrich,
MTOX1303) suspension (400 μl) was added to each well of high throughput screening multiwell
insert system plates. Test compounds were prepared as 20 mM DMSO stocks. The test compound
(300 µl) was dissolved in transport buffer (9.5 g/l Hanks’ balanced salt solution and 0.35 g/l NaHCO3
wells whereas 1000 µl of transport buffer was added to transport analysis plate wells in order to
determine apical (A) to basolateral (B) transport. Basolateral to apical transport was measured by
adding 1000 µl of the test compound solution into the transport analysis plate wells whereas 300
µl of buffer was used to fill the filter plate wells.
were taken from the donor and receiver compartments for LC-MS/MS analysis. Samples were
mixed with acetonitrile followed by protein sedimentation by centrifugation at 1000 rpm for 10 min.
HPLC coupled with tandem mass spectroscopy was performed using the Shimadzu Prominence
HPLC system coupled with the API 5000 (PE Sciex) spectrometer. Both the positive and negative
ion modes of the TurboIonSpray ion source were used. The apparent permeability (Papp) was
computed using the equation 1, where VA is the volume of transport buffer in acceptor wel, Area is
the surface area of the insert, Time is the assay time, [drug]acc is the peak area of test compound
in acceptor well, and [drug]initial,d is the initial amount of the test compound in a donor well.
For data set [2], the target named is T1, SARS-CoV-2 NSP3 Mac1 (Severe acute respiratory syndrome coronavirus 2, UniProt P0DTD1). The experiment in a line: biochemical. In kind it is binding. The settings on record: for Ki: read-out: Ki***.
The target of a further data set is T2, TARG1 (Homo sapiens, UniProt Q9Y530).
T2 construct: Targ1_HTRF; HTRF assay; pET22b(+); His6, TEV; 1-153; made in house
T2 sequence (Q9Y530 with tags, fused parts or gaps): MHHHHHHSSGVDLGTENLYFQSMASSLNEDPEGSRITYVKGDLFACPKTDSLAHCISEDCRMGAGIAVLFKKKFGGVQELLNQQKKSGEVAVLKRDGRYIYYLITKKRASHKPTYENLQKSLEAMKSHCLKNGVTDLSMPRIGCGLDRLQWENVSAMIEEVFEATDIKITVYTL
The experiment in a line: adapted HTRF-based peptide displacement assay (off-target). The data set is classed as binding. In general terms: In TR-FRET formats the signal depends on donor and acceptor labels being close together.

A further data set deals with T3, MacroD2 (Homo sapiens, UniProt A1Z1Q3).
T3 construct: MacroD2_HTRF; HTRF assay; pET22b(+); His6, TEV, Avi; made in house
T3 sequence (A1Z1Q3 with tags, fused parts or gaps): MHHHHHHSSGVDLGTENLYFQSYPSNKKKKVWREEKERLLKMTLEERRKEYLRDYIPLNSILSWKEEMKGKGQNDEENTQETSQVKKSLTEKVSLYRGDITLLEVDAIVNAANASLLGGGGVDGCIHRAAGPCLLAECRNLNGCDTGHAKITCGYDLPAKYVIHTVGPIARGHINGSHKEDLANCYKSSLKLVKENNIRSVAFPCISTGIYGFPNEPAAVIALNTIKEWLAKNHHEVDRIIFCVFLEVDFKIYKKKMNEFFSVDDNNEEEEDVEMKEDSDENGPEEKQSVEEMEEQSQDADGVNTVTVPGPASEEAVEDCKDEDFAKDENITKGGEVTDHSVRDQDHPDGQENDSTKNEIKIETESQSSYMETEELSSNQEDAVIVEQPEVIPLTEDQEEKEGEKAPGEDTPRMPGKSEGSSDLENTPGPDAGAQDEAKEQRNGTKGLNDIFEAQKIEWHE
The data set is described as above. In kind it is binding.

For data set [3], the target named is T1, SARS-CoV-2 NSP3 Mac1. In kind it is binding. The settings on record: for Refined occupancy: ligand occupancy after refinement (phenix.refine); for HIT*: true hit = binding in crystallographic soaking or the HTRF-based binding assay.
Data set [4] addresses T1, SARS-CoV-2 NSP3 Mac1. In kind it is binding. Further details: contains a conserved macrodomain enzyme (Mac1). The conditions noted are these: for Spearman est (compound concentration vs apparent Tm): DSF dose responsiveness, 1 µM nsp3 mac1, adj p given; for DSF max dTma: maximal thermal upshift. An outline of the steps:
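ΔTma values are thermal shifts relative to a co-located DMSO-only control, read with 5 µM Fluorescent Yellow dye. Each compound was tested in triplicate over seven concentrations (two-fold steps, top 1,000 or 100 μM). Spearman correlation of concentration versus ΔTma tested whether the shift was dose-responsive.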

The target of data set [5] is T1, SARS-CoV-2 NSP3 Mac1. Further details: contains a conserved macrodomain enzyme (Mac1); Differential scanning fluorimetry of Mac1, maximum thermal upshift. The conditions noted are these: maximum shift over tested concentrations; binder.
Data set [6] concerns SARS-CoV-2 NSP3 Mac1. Put plainly: Overall hit call (binding in crystallographic soaking or the HTRF-based binding assay). From the text:
Supplement pnas.2212931120.sd01.xlsx, sheet "Compound Summary" | column: HIT*

[7] abbreviates: Ki estimation from HTRF-derived IC50, Cheng-Prusoff, peptide 400nM, Kd 2.68µM.
Setting [8] is: PanDDA event map, 1 minus background density correction, crystal soaking of Mac1.
Setting [9] is: PanDDA 1-BDC value of the event, crystal soak, compound concentration 100 mM, per dataset.
Where [10] appears, read: crystal soak, compound concentration 100 mM, per dataset.
Setting [11] is: HTRF ADPr-peptide displacement from SARS-CoV-2 Mac1, read-out: IC50.

Read-outs that look alike come from different tables or passages of the source.

A word on the Papp A→B: it is how fast a substance crosses the layer from the apical side. A word on the Papp B→A: it is the apparent permeability from the basolateral to the apical side of a cell layer. What is called Papp is a coefficient for how fast a substance crosses the barrier. A high value points to ready permeation. In data set [1] (MDCK-MDR1, pH 7.4), `O=C(Nc1ccc(C(=O)NC2c3cccc(O)c3CC2C(=O)O)cc1)NC1CC1` (stereo not drawn) [Z8539] yielded a Papp A→B at 90 min, 10 µM of 1.1 ± 0.1 ×10⁻⁶ cm/s and a Papp B→A at 90 min, 10 µM of 0.5 ×10⁻⁶ cm/s. This compound also registered a Papp at 90 min, 10 µM in data set [1] (MDCK-MDR1, pH 7.4, cell permeability, MDCK cells, direction not given) of 1.1 ×10⁻⁶ cm/s.
By Ki is commonly meant a measure of affinity in units of concentration, obtained from inhibition or displacement. For the compound `O=C(Nc1ccc(C(=O)NC2c3cccc(O)c3CC2C(=O)O)c(O)c1)NC1CC1` (stereo not drawn) [Z8539_0072], the IC50 was 0.43 µM on SARS-CoV-2 NSP3 Mac1 [2] (HTRF, Mac1, read-out: affinity) and 0.4 µM at SARS-CoV-2 NSP3 Mac1 [2] (IC50, HTRF ADPr-peptide displacement from SARS-CoV-2 Mac1). Besides, the Ki on SARS-CoV-2 NSP3 Mac1 [2] (setting [7]) is 0.3 µM. On SARS-CoV-2 NSP3 Mac1 [2] (affinity, HTRF), the “improvement compared to the best starting fragment” value is given as above 400 fold. Also, the “displacement of the ADPr-conjugated peptide (off-target activity)” value on TARG1 (compound at 50 µM), at TARG1 (compound at 1 mM), at MacroD2 (compound at 50 µM) and on MacroD2 (compound at 1 mM) was “did not show any off-target activity” throughout. Moreover, the 1-BDC at SARS-CoV-2 NSP3 Mac1 [3] (PanDDA event map 1-BDC, crystal soak, Compound_concentration 100 mM, PanDDA run dmso_34 or nohits_35 per dataset) was 0.24. Further, the “1-BDC (PanDDA)” value on SARS-CoV-2 NSP3 Mac1 [3] (setting [8]) worked out at 0.24. Also, the “PanDDA hit?” value at SARS-CoV-2 NSP3 Mac1 [3] (crystal soak, Compound_concentration 100 mM, Echo dispense 40 nl, PanDDA run dmso_34 or nohits_35 per dataset) is “TRUE”. In addition, the “Modeled?” value at SARS-CoV-2 NSP3 Mac1 [3] (ligand modeled in this dataset, crystal soak, Compound_concentration 100 mM) was “TRUE”. On SARS-CoV-2 NSP3 Mac1 [3] (crystal soaking of Mac1), this compound showed a Refined occupancy of 48. At SARS-CoV-2 NSP3 Mac1 [3], the “HIT*” value is “Y”.
As for `CS(=O)(=O)C1CCCN(c2ncnc3[nH]c4cc(F)ccc4c23)C1` (stereo not drawn) [LL1_0027], the values for the 1-BDC on SARS-CoV-2 NSP3 Mac1 [3] (setting [9]) and on SARS-CoV-2 NSP3 Mac1 [3] (setting [8]) were 0.09 and 0.06, respectively. For the same compound, the “PanDDA hit?” value at SARS-CoV-2 NSP3 Mac1 [3] (setting [10]) is “TRUE”. Also, on SARS-CoV-2 NSP3 Mac1 [3] (ligand modeled from this dataset, compound concentration 100 mM, Echo dispense volume 40 or 80 nl), the “Modeled?” value is reported as “TRUE”. Further, at SARS-CoV-2 NSP3 Mac1 [3] (crystal soaking of Mac1), the Refined occupancy was determined as 12. In addition, the “HIT*” value on SARS-CoV-2 NSP3 Mac1 [3] is reported as “Y”. Further, on SARS-CoV-2 NSP3 Mac1 [4], the “Spearman est (compound concentration vs apparent Tm)” value amounted to 0.41. The “DSF max dTma” value was 0.8 ˚C on SARS-CoV-2 NSP3 Mac1 [4] and 0.8 °C on SARS-CoV-2 NSP3 Mac1 [5].
`O=C1CCCC1Nc1ncnc2[nH]c3cc(F)ccc3c12` (stereo not drawn) [LRH-0008]: the IC50 on SARS-CoV-2 NSP3 Mac1 [2] (setting [11]) worked out at 13.4 µM. For the same compound, the Ki at SARS-CoV-2 NSP3 Mac1 [2] is 11.7 µM. Also, the “binding / activity against TARG1” value on TARG1 (compound at 160 µM) was “neither neutral compounds LRH-0003 and LRH-0008 had measurable binding”. At MacroD2 (compound at 160 µM), the “binding / activity against MacroD2” value was “neither neutral compounds LRH-0003 and LRH-0008 had measurable binding”. Moreover, the “HIT*” value in the data set with SARS-CoV-2 NSP3 Mac1 [6] is listed as “Y”.
For `O=C(O)C1(F)CN(c2cc(Nc3ccccc3)ncn2)CC12CCC2` (stereo not drawn) [LL1_0025], at SARS-CoV-2 NSP3 Mac1 [2] (HTRF, read-out: IC50), the IC50 is 121 µM. Besides, the Ki on SARS-CoV-2 NSP3 Mac1 [2] (setting [7]) is 106 µM. Besides, the 1-BDC on SARS-CoV-2 NSP3 Mac1 [3] (setting [9]) is reported as 0.12. For the same compound, on SARS-CoV-2 NSP3 Mac1 [3] (setting [8]), the “1-BDC (PanDDA)” value is 0.14. Besides, the “PanDDA hit?” value at SARS-CoV-2 NSP3 Mac1 [3] (setting [10]) is on record as “TRUE”. Besides, the “Modeled?” value on SARS-CoV-2 NSP3 Mac1 [3] (ligand modeled from this dataset, compound concentration 100 mM) is listed as “TRUE”. In addition, the Refined occupancy at SARS-CoV-2 NSP3 Mac1 [3] (crystal soaking of Mac1) was determined as 28. Moreover, the “HIT*” value at SARS-CoV-2 NSP3 Mac1 [3] was “Y”. On SARS-CoV-2 NSP3 Mac1 [4], the “Spearman est (compound concentration vs apparent Tm)” value was 0.71. The “DSF max dTma” value was 1.36 ˚C at SARS-CoV-2 NSP3 Mac1 [4] and 1.36 °C at SARS-CoV-2 NSP3 Mac1 [5].
`Cc1nnc(CNc2cnc(N)c(Cl)n2)n1C1CC1` [Z1964, ZINC000893101964]: the “DSF max dTma” value on SARS-CoV-2 NSP3 Mac1 [5] turned out to be 0.12 °C.
For the compound `Fc1ccc2c(c1)[nH]c1ncnc(N3CCOC(c4nnn[nH]4)C3)c12` (stereo not drawn) [LL114_0008], the IC50 at SARS-CoV-2 NSP3 Mac1 [2] (HTRF ADPr-conjugated peptide displacement, read-out: IC50) was 17.2 µM; at SARS-CoV-2 NSP3 Mac1 [2] (setting [11]) it was 17 µM. On SARS-CoV-2 NSP3 Mac1 [2], the Ki came to 15 µM. The “displacement of the ADPr-conjugated peptide (off-target activity)” value on TARG1 (compound at 50 µM) and at MacroD2 (compound at 50 µM) was “showed measurable peptide displacement” each time. For the same compound, at SARS-CoV-2 NSP3 Mac1 [3] (setting [8]), the “1-BDC (PanDDA)” value was determined as 0.25. Also, the 1-BDC at SARS-CoV-2 NSP3 Mac1 [3] (PanDDA event map, crystal soak, Compound_concentration 100 mM, Echo_dispense_volume 40 nl) is given as 0.25. For the same compound, on SARS-CoV-2 NSP3 Mac1 [3] (crystal soak, Compound_concentration 100 mM, Echo_dispense_volume 40 nl, PanDDA run (background map) dmso_34, nohits_35 or nohits_62), the “PanDDA hit?” value is reported as “TRUE”. On SARS-CoV-2 NSP3 Mac1 [3] (ligand modeled, crystal soak, Compound_concentration 100 mM, Echo_dispense_volume 40 nl), the “Modeled?” value is given as “TRUE”. Also, on SARS-CoV-2 NSP3 Mac1 [3] (crystal soaking of Mac1), the Refined occupancy was 50. For the same compound, in the data set with SARS-CoV-2 NSP3 Mac1 [6], the “HIT*” value is listed as “Y”.
